Where “and” joins values, the source holds several entries; their conditions need not be identical. Identical values can stand only once.
Tests used:
[1] = molecular target: T1, Adrenergic receptor alpha-1 (Rattus norvegicus, UniProt P15823+P23944+P43140); experiment: Ability to displace [3H]prazosin from postsynaptic alpha-1 adrenergic receptor of rat in vitro.; assay type: protein assay
T1 sequence (P15823 whole entry): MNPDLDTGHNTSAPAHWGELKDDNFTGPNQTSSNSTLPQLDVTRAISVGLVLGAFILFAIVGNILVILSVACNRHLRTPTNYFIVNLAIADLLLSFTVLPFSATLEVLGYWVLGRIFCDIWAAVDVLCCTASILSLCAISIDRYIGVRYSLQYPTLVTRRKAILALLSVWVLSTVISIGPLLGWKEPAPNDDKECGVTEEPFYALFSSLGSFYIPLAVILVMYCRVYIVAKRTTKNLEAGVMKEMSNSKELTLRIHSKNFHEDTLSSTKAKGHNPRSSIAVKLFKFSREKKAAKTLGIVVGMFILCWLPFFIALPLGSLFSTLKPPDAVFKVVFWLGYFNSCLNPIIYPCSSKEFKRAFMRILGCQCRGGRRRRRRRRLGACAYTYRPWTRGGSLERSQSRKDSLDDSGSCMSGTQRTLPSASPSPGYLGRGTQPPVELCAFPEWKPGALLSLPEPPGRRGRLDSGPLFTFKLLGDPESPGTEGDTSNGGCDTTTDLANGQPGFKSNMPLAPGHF
T1 sequence (P23944 whole entry): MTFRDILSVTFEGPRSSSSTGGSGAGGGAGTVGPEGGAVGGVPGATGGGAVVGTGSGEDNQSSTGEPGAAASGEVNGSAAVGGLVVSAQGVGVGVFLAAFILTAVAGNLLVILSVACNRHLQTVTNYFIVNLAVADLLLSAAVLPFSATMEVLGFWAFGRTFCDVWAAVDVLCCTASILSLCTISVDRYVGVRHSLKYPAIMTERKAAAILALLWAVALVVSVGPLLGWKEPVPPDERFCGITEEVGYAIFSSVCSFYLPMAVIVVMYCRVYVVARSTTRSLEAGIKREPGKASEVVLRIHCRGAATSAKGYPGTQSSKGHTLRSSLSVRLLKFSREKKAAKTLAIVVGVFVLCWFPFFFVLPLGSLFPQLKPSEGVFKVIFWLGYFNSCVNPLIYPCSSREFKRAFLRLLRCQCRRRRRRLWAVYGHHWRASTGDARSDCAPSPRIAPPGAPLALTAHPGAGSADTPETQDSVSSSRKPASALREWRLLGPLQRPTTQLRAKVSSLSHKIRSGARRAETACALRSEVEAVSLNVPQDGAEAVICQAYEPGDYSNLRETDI
T1 sequence (P43140 whole entry): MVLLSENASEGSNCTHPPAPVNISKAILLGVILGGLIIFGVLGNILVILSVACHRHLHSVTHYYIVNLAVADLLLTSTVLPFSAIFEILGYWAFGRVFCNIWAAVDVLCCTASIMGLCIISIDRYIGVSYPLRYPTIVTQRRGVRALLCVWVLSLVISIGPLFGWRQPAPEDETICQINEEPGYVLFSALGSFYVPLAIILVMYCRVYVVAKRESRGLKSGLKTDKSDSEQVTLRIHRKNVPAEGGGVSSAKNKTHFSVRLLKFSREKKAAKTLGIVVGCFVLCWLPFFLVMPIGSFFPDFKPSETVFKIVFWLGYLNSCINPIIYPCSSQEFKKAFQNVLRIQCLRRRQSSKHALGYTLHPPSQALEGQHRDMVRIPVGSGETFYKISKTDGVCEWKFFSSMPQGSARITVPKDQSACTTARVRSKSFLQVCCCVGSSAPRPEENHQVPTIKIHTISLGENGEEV

Rattus norvegicus = experiment: Antihypertensive activity on spontaneously hypertensive rats, when administered orally at a dose 15 mg/kg; assay type: functional; settings: route oral
Canis familiaris [2] = experiment: Heart rate after 8 hours of oral administration in renal hypertensive dogs at dose 0.1 mg/kg; assay type: functional, Canis lupus familiaris
Canis familiaris [3] = experiment: Heart rate after 8 hours of oral administration in renal hypertensive dogs at dose 0.3 mg/kg; assay type: functional, Canis lupus familiaris
Canis familiaris [4] = experiment: Heart rate after 8 hours of oral administration in renal hypertensive dogs at dose 0.5 mg/kg; assay type: functional, Canis lupus familiaris
Canis familiaris [5] = experiment: Heart rate after 6 hours of oral administration in renal hypertensive dogs at dose 0.3 mg/kg; assay type: functional, Canis lupus familiaris
Canis familiaris [6] = experiment: Heart rate after 6 hours of oral administration in renal hypertensive dogs at dose 0.5 mg/kg; assay type: functional, Canis lupus familiaris
Canis familiaris [7] = experiment: Systolic blood pressure after 4 hr of oral administration in renal hypertensive dogs at dose 0.3 mg/kg; assay type: functional, Canis lupus familiaris
Canis familiaris [8] = experiment: Systolic blood pressure after 4 hr of oral administration in renal hypertensive dogs at dose 0.5 mg/kg; assay type: functional, Canis lupus familiaris
Canis familiaris [9] = experiment: Systolic blood pressure after 6 hr of oral administration in renal hypertensive dogs at dose 0.1 mg/kg; assay type: functional, Canis lupus familiaris
Canis familiaris [10] = experiment: Systolic blood pressure after 6 hr of oral administration in renal hypertensive dogs at dose 0.3 mg/kg; assay type: functional, Canis lupus familiaris
Canis familiaris [11] = experiment: Systolic blood pressure after 6 hr of oral administration in renal hypertensive dogs at dose 0.5 mg/kg; assay type: functional, Canis lupus familiaris
Canis familiaris [12] = experiment: Systolic blood pressure after 8 hr of oral administration in renal hypertensive dogs at dose 0.1 mg/kg; assay type: functional, Canis lupus familiaris
Canis familiaris [13] = experiment: Systolic blood pressure after 8 hr of oral administration in renal hypertensive dogs at dose 0.3 mg/kg; assay type: functional, Canis lupus familiaris
Canis familiaris [14] = experiment: Systolic blood pressure after 8 hr of oral administration in renal hypertensive dogs at dose 0.5 mg/kg; assay type: functional, Canis lupus familiaris
Canis familiaris [15] = experiment: Heart rate after 2 hours of oral administration in renal hypertensive dogs at dose 0.1 mg/kg; assay type: functional, Canis lupus familiaris
Canis familiaris [16] = experiment: Heart rate after 2 hours of oral administration in renal hypertensive dogs at dose 0.3 mg/kg; assay type: functional, Canis lupus familiaris
Canis familiaris [17] = experiment: Peak effect after 2-4 hours systolic blood pressure after 1 days of oral administration in renal hypertensive dogs at dose 0.3 mg/kg; assay type: functional, Canis lupus familiaris, Artery
Canis familiaris [18] = experiment: Peak effect after 2-4 hours systolic blood pressure after 2 day of oral administration in renal hypertensive dogs at dose 0.3 mg/kg; assay type: functional, Canis lupus familiaris, Artery
Canis familiaris [19] = experiment: Peak effect after 2-4 hours systolic blood pressure after 3 days of oral administration in renal hypertensive dogs at dose 0.3 mg/kg; assay type: functional, Canis lupus familiaris, Artery
Canis familiaris [20] = experiment: Peak effect after 2-4 hours systolic blood pressure after 7 days of oral administration in renal hypertensive dogs at dose 0.3 mg/kg; assay type: functional, Canis lupus familiaris, Artery
Canis familiaris [21] = experiment: Systolic blood pressure after 0 hours of oral administration in renal hypertensive dogs at dose 0.1 mg/kg; assay type: functional, Canis lupus familiaris
Canis familiaris [22] = experiment: Systolic blood pressure after 0 hours of oral administration in renal hypertensive dogs at dose 0.3 mg/kg; assay type: functional, Canis lupus familiaris
Canis familiaris [23] = experiment: Heart rate after 0 hours of oral administration in renal hypertensive dogs at dose 0.1 mg/kg; assay type: functional, Canis lupus familiaris
Canis familiaris [24] = experiment: Heart rate after 0 hours of oral administration in renal hypertensive dogs at dose 0.3 mg/kg; assay type: functional, Canis lupus familiaris
Canis familiaris [25] = experiment: Heart rate after 0 hours of oral administration in renal hypertensive dogs at dose 0.5 mg/kg; assay type: functional, Canis lupus familiaris
Canis familiaris [26] = experiment: Systolic blood pressure after 0 hours of oral administration in renal hypertensive dogs at dose 0.5 mg/kg; assay type: functional, Canis lupus familiaris
Canis familiaris [27] = experiment: Systolic blood pressure after 2 hours of oral administration in renal hypertensive dogs at dose 0.1 mg/kg; assay type: functional, Canis lupus familiaris
Canis familiaris [28] = experiment: Systolic blood pressure after 2 hours of oral administration in renal hypertensive dogs at dose 0.3 mg/kg; assay type: functional, Canis lupus familiaris
Canis familiaris [29] = experiment: Systolic blood pressure after 2 hr of oral administration in renal hypertensive dogs at dose 0.5 mg/kg; assay type: functional, Canis lupus familiaris
Canis familiaris [30] = experiment: Heart rate after 6 hours of oral administration in renal hypertensive dogs at dose 0.1 mg/kg; assay type: functional, Canis lupus familiaris
Canis familiaris [31] = experiment: Heart rate after 4 hours of oral administration in renal hypertensive dogs at dose 0.1 mg/kg; assay type: functional, Canis lupus familiaris
Canis familiaris [32] = experiment: Heart rate after 4 hours of oral administration in renal hypertensive dogs at dose 0.3 mg/kg; assay type: functional, Canis lupus familiaris
Canis familiaris [33] = experiment: Heart rate after 4 hours of oral administration in renal hypertensive dogs at dose 0.5 mg/kg; assay type: functional, Canis lupus familiaris
Canis familiaris [34] = experiment: Systolic blood pressure after 4 hr of oral administration in renal hypertensive dogs at dose 0.1 mg/kg; assay type: functional, Canis lupus familiaris
Canis familiaris [35] = experiment: Heart rate after 2 hours of oral administration in renal hypertensive dogs at dose 0.5 mg/kg; assay type: functional, Canis lupus familiaris

Cl.Clc1ccc(-c2[nH]nc3c2CNCC3)cc1
Ki [1]: 145 nM | Delta p (Rattus norvegicus): 0%

COc1cc2nc(N3CCN(C(=O)c4ccco4)CC3)nc(N)c2cc1OC [PRAZOSIN]
Heart rate (Canis familiaris [2]): 106% | Heart rate (Canis familiaris [3]): 100% | Heart rate (Canis familiaris [4]): 82 beats min-1 | Heart rate (Canis familiaris [5]): 90% | Heart rate (Canis familiaris [6]): 78 beats min-1 | Blood pressure (Canis familiaris [7]): 160 mmHg | Blood pressure (Canis familiaris [8]): 125 mmHg | Blood pressure (Canis familiaris [9]): 193 mmHg | Blood pressure (Canis familiaris [10]): 165 mmHg | Blood pressure (Canis familiaris [11]): 125 mmHg | Blood pressure (Canis familiaris [12]): 196 mmHg | Blood pressure (Canis familiaris [13]): 180 mmHg | Blood pressure (Canis familiaris [14]): 150 mmHg | Heart rate (Canis familiaris [15]): 92% | Heart rate (Canis familiaris [16]): 114% | Blood pressure (Canis familiaris [17]): 96% | Blood pressure (Canis familiaris [18]): 100% and 92% | Blood pressure (Canis familiaris [19]): 96% | Blood pressure (Canis familiaris [20]): 100% | Blood pressure (Canis familiaris [21]): 205 mmHg | Blood pressure (Canis familiaris [22]): 202 mmHg | Heart rate (Canis familiaris [23]): 104 beats min-1 | Heart rate (Canis familiaris [24]): 110 beats min-1 | Heart rate (Canis familiaris [25]): 86 beats min-1 | Blood pressure (Canis familiaris [26]): 190 mmHg | Blood pressure (Canis familiaris [27]): 186 mmHg | Blood pressure (Canis familiaris [28]): 182 mmHg | Blood pressure (Canis familiaris [29]): 135 mmHg | Heart rate (Canis familiaris [30]): 96% | Heart rate (Canis familiaris [31]): 94% | Heart rate (Canis familiaris [32]): 100% | Heart rate (Canis familiaris [33]): 82% | Blood pressure (Canis familiaris [34]): 180 mmHg | Heart rate (Canis familiaris [35]): 94 beats min-1
